This note sets out measurements from patent publication US20030194750A1, “Methods for treatment of diseases where GSK 3-beta is desired, and methods to identify compounds usefule for that” (priority 2002, published 2003).

Assay [1] deals with T1, COX I (Ovis aries, UniProt P05979).
T1 construct: The COX was purified from ram seminal vesicles; from tissue; host or cells: ram seminal vesicles
T1 sequence (P05979 25-600): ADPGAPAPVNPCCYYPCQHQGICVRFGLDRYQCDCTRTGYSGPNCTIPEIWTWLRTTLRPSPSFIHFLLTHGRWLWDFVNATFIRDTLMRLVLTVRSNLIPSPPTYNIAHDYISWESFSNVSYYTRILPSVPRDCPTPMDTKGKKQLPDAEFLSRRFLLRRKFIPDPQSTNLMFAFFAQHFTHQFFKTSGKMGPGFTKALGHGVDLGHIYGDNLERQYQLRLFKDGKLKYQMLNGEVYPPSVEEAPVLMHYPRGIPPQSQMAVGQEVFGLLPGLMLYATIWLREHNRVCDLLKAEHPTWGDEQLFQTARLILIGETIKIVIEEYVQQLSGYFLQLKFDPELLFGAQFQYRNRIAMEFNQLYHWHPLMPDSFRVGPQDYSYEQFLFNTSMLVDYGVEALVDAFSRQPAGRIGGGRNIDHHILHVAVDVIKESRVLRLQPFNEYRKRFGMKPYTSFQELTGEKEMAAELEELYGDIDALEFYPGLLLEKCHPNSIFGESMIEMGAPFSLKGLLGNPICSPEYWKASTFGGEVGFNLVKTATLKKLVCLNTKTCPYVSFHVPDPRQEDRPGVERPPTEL
The experiment in a line: Purified cyclooxygenase (COX) inhibition. It counts as biochemical, ram. The settings on record: arachidonic acid 100 μM, 2.0 min, 37° C. The method, then: COX catalyzes the formation of prostaglandins and thromboxane by the oxidative metabolism of arachidonic acid. The compound of Example 1 of this invention, as well as a positive control, (sulindac sulfide) were evaluated to determine whether they inhibited purified cyclooxygenase Type I (see Table 1 below).
The compounds useful in the practice of this invention were evaluated for inhibitory effects on purified COX. The COX was purified from ram seminal vesicles, as described by Boopathy, R. and Balasubramanian, J., 239:371-377, 1988. COX activity was assayed as described by Evans, A. T., et al., “Actions of Cannabis Constituents on Enzymes Of Arachidonate Metabolism Anti-Inflammatory Potential,” Biochem. Pharmacol., 36:2035-2037, 1987. Briefly, purified COX was incubated with arachidonic acid (100 μM) for 2.0 min at 37° C. in the presence or absence of test compounds. The assay was terminated by the addition of TCA, and COX activity was determined by absorbance at 530 nm.

The subject of assay [2] is PKG. The experiment in a line: PKG activity assay on lysates of drug-treated SW480 colon cancer cells (32P phosphorylation of PDE5/GST substrate). The note with it: SW480 cells treated 48 hrs; exisulind 200, 400, 600 μM, E4021 0.1, 1, 10 μM; assay with and without added cGMP. It counts as cell-based, human. The method, then:
A compound that inhibits all these types of PDE is desirable, accordingly. Below, we provide examples of such PDE-inhibiting compounds.
SW 480 is known to contain the APC mutation. About 5 million SW480 cells in RPMI 5% serum are added to each of 8 dishes:
2-10 cm dishes - - - 30 μL DMSO vehicle control (without drug),
3-10 cm dishes - - - 200 μM, 400 μM, 600 μM exisulind in DMSO, and
The dishes are incubated for 48 hrs at 37° C. in 5% CO2 incubator.
The liquid media are aspirated from the dishes (the cells will attach themselves to the dishes). The attached cells are washed in each dish with cold PBS, and 200 μL cell lysis buffer (i.e., 50 mM Tris-HCl, 1% NP-40, 150 mM NaCl, 1 mM EDTA, 1 mM Na3VO4, 1 mM NaF, 500 μM IBMX with proteinase inhibitors) is added to each dish. Immediately after the cell lysis buffer is added, the lysed cells are collected by scraping the cells off each dish. The cell lysate from each dish is transferred to a microfuge tube, and the microfuge tubes are incubated at 4° C. for 15 minutes while gently agitating the microfuge tubes to allow the cells to lyse completely. […]
For each control or drug cell lysate sample to be evaluated, the reaction is started by adding phosphorylation buffer containing 10 μCi ^32P-γ-ATP solution (200 μM ATP, 4.5 mM MgCl; 5 mM KH2PO4; 5 mM K2HPO4;) to each mixture. […]

Assay [3] relates to PKG. Description: PKG activity assay on lysates of drug-treated HCT116 colon cancer cells. It counts as cell-based, human. The settings on record: HCT116 cells (β-catenin mutation, no APC mutation), same procedure as SW480. The text has this: HCT116 is known to contain the β-catenin mutation, but is known not to contain the APC mutation.
The same procedure is used to grow the HCT116 cells as is used in the SW480 procedure described above. In this experiment, only exisulind and controls were used.

The test system of assay [4] is PKG. Description: Western blot of PKG protein in SW480 cells. The note with it: 48 hours, vs vehicle 0.1% DMSO. It counts as cell-based, human. The protocol: (§1) SW480 cells treated with exisulind as described previously are harvested from the microfuge tubes by rinsing once with ice-cold PBS. The cells are lysed by modified RIPA buffer for 15 minutes with agitation. The cell lysate is spun down in a cold room. The supernatants are transferred to fresh microcentrifuge tubes immediately after spinning. BioRad DC Protein Assay (Temecula, Calif.) is performed to determine the protein concentrations in samples. The samples are normalized for protein concentration, as described above.
(§2) 50 μg of each sample is loaded to 10% SDS gel. SDS-PAGE is performed, and the proteins then are transferred to a nitrocellulose membrane. The blotted nitrocellulose membrane are blocked in freshly prepared TBST containing 5% nonfat dry milk for one hour at room temperature with constant agitation.
A goat-anti-PKG primary antibody is diluted to the recommended concentration/dilution in fresh TBST/5% nonfat dry milk. The nitrocellulose membrane is placed in the primary antibody solution and incubated one hour at room temperature with agitation. The nitrocellulose membrane is washed three times for ten minutes each with TBST. The nitrocellulose membrane is incubated in a solution containing a secondary POD conjugated rabbit anti-goat antibody for 1 hour at room temperature with agitation. The nitrocellulose membrane is washed three times for ten minutes each time with TBST. […]
On the technique in general: A western blot detects proteins with antibodies after separation by electrophoresis.

Assay [5] deals with β-catenin. The experiment in a line: Western blot of β-catenin in SW480 cells. It counts as cell-based, human. The protocol:
as §1, §2
SW480 cells were treated with exisulind or vehicle (0.1% DMSO) for 48 hours. 50 μg supernatant of each cell lysates were loaded to 10% SDS-gel and blotted to nitrocellulose membrane, and the membrane was probed with rabbit-anti-β-catenin and rabbit anti-PKG antibodies.
This observation was made by culturing SW480 cells with either 200, 400 or600 μM exisulind or vehicle (0.1% DMSO). The cells are harvested 48 hours post treatment and processed for immunoblotting. Immuno-reactive protein can be detected by Western blot. […]

The test system of assay [6] is GSK3β. Description: Western blot of GSK3β-phospho-ser9 in SW480 cells. It counts as cell-based, human. The settings on record: various concentrations, 48 hours, vs 0 concentration. The method, then:
(§3) 50 μg protein/lane were analyzed by Western blot analysis using specific anti-PKG1β and anti-GSK3β-phospho-ser9 antibodies.

For assay [7], the system named is PKG1β. The experiment in a line: Western blot of PKG1β in SW480 cells. It counts as cell-based, human. The note with it: various concentrations, 48 hours. The method, then:
as §3

Assay [8] has as its target T2, GST-cGB-PDE5 fusion protein (Homo sapiens, UniProt O76074).
T2 construct: made in house; host or cells: E. coli BL21 (DE3)
The experiment in a line: cGMP binding assay with GST-cGB-PDE5 fusion protein. The note with it: 3H-cGMP 2 μM, 22° C., 1 hour. The method, then:
5′-3′, Inc. kits for total RNA followed by oligo (dT) column purification of mRNA are used with HT-29 cells. […] It is then cloned into pGEX-5X-3 glutathione-S-transferase (GST) fusion vector (Pharmacia Biotech) with tac promoter, and EcoRI and XhoI cut sites. The fusion vector is then transfected into E. Coli BL21 (DE3) bacteria (Invitrogen). The transfected BL21 bacteria is grown to log phase, and then IPTG is added as an inducer. The induction is carried at 20° C. for 24 hrs. The bacteria are harvested and lysed. The soluble cell lysate is incubated with GSH conjugated Sepharose 4B (GSH-Sepharose 4B). The GST-cGB-PDE5 fusion protein can bind to the GSH-Sepharose beads, and the other proteins are washed off from beads with excessive cold PBS.
Then, the mixture is transferred to Brandel MB-24 cell harvester with GF/B as the filter membrane followed by 2 washes with 10 mL of cold 5 mM potassium buffer( pH 6.8). The membranes are then cut out and transferred to scintillation vials followed by the addition of 1 mL of H2O and 6 mL of Ready Safe™ liquid scintillation cocktail to each vial. The vials are counted on a Beckman LS 6500 scintillation counter.
The quenching by filter membrane or other debris are also calibrated.

A word on the inhibition: it is the change of the read-out against control, counted positive when it falls. Read a low inhibition as little suppression.

T2 sequence (O76074 46-539 limits assumed): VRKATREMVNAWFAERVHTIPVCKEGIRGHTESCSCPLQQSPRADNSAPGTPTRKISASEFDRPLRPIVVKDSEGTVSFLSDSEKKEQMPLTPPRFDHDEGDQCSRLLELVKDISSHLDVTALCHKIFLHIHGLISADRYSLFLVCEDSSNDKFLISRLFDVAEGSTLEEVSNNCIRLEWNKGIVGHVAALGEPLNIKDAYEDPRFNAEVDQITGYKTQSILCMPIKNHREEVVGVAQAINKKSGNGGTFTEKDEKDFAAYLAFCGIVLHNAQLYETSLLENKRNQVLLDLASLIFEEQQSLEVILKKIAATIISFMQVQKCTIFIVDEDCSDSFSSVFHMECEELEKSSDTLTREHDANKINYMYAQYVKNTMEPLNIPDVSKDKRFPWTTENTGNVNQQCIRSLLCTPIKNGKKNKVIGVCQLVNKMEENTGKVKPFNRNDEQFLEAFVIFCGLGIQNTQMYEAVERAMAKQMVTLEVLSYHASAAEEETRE

For the compound `CC1=C(CC(=O)NCc2ccccc2)c2cc(F)ccc2/C1=C\c1ccncc1` [Example 1, (Z)-5-Fluoro-2-Methyl-(4-Pyridinylidene)-3-(N-Benzyl)-Indenylacetamide], the inhibition at 100 µM in assay [1] was under 25%.

Regarding `CC1=C(CC(=O)O)c2cc(F)ccc2/C1=C\c1ccc(S(C)(=O)=O)cc1` [exisulind], the “PKG activity relative to control” value in assay [2] was “causes PKG activity to increase in a dose-dependent manner”. Moreover, in assay [3], the “PKG activation relative to controls” value is given as “PKG activation occurred”. Besides, the “PKG protein level by Western blot” value in assay [4] is given as “increase of PKG”. Further, the “reduction of β-catenin expression compared to control” value in assay [5] (SW480 cells, 200, 400 or 600 μM, harvested 48 hours post treatment) is on record as 50%. In addition, the “β-catenin level by Western blot” value in assay [5] (SW480 cells, 48 hours, vs vehicle 0.1% DMSO) is listed as “drop of β-catenin”. For the same compound, the “GSK3β inactivation by Ser9 phosphorylation” value in assay [6] is recorded as “inactivated in vivo by phosphorylation of its Ser9”. In addition, in assay [7], the PKG1 induction entry was “PKG1 induction in a dose-dependent manner”. The “competition with cGMP for the cGMP binding sites” value in assay [8] is on record as “None of the PDE5 inhibitors showed any competition with cGMP in binding”.
